Experimental data reported in patent US11064940B2, “Methods for detecting and treating pain using brain activity” (Rhode Island Hospital, priority 2016, dated 2021).
Where two headings read alike, the source gives them in different places.

Legend:
male Sprague-Dawley rats [1] = assay: Thermal hyperalgesia, paw withdrawal latency (PWL) to radiant heat; format: in vivo, rat
male Sprague-Dawley rats [2] = system: male Sprague-Dawley rats
male Sprague-Dawley rats [3] = assay: Cortical EEG coherence (3-30 Hz) between S1 and PFC electrodes; format: in vivo, rat
[4] = system: transgenic mice co-expressing VGAT with Channelrhodopsin-2; assay: SI theta power (LFP) after intradermal capsaicin in VGAT-ChR2 mice; format: in vivo, mouse; details: 15-20 minutes after intradermal injection of capsaicin in the hindpaw, n=5 mice
Excerpt: Thalamic bursts are triggered predominantly by GABAergic drive from the reticular thalamic nucleus (TRN), a thin layer overlaying the thalamus that receives strong input from limbic cortical areas. To selectively induce thalamic bursts, TRNs were optically stimulated in awake, unrestrained transgenic mice co-expressing the vesicular GABA transporter (VGAT) with Channelrhodopsin-2 (ChR2). In these mice, ChR2 expression in the thalamus is restricted to the TRN. Age-matched wild-type (C57 Bl\6J) non-ChR2 expressing mice were also used to control for non-specific optical stimulation effects. The naïve state refers to normal conditions prior to induction of the pain models. A custom-made multi-channel system was used to record extracellularly from putative single-units in ventral posterolateral (VPL) thalamus and local field potential (LFP) in the primary somatosensory cortex (S1) hindlimb area (FIGS. 9A-9B). For a description of the FlexDrive system assembly see www.open-ephys.org/[…]. […] FlexDrives were fixed to the skull using C&B-METABOND® Quick! Adhesive (Parkell). After 3 days postoperatively, tetrodes were lowered incrementally ( 500 μm over 5-7 days) until auditory confirmation of typical neuronal responses as expected in VPL and SI (e.g., increased multiunit firing) evoked by light brushing of the left hindpaw. Tetrode positions were also corroborated by stereotaxic coordinates. […]

VPL neurons = assay: Spontaneous burst firing of VPL thalamic neurons after capsaicin; format: in vivo, mouse; details: after capsaicin injection, n=17 units, 5 mice
Excerpt: A custom-made multi-channel system was used to record extracellularly from putative single-units in ventral posterolateral (VPL) thalamus and local field potential (LFP) in the primary somatosensory cortex (S1) hindlimb area (FIGS. 9A-9B). For a description of the FlexDrive system assembly see www.open-ephys.org/[…]. […] FlexDrives were fixed to the skull using C&B-METABOND® Quick! Adhesive (Parkell). After 3 days postoperatively, tetrodes were lowered incrementally ( 500 μm over 5-7 days) until auditory confirmation of typical neuronal responses as expected in VPL and SI (e.g., increased multiunit firing) evoked by light brushing of the left hindpaw. Tetrode positions were also corroborated by stereotaxic coordinates. […] Chronic implants were stable over several weeks, allowing longitudinal analysis of neuronal activity with behavioral testing of mechanical sensitivity. […] Sorted spikes were then screened visually and inspected for false-positive or overlapping unitary assignments. Only one electrode per tetrode was used for spike sorting to minimize redundant assignments from the same unit. […] Moreover, isolation of putative unitary spikes also met the criterion of inter-spike interval (ISI)>2 ms (refractory period). […]

[5] = system: transgenic mice co-expressing VGAT with Channelrhodopsin-2; assay: Mechanical paw withdrawal threshold to von Frey filaments after capsaicin; details: within 15-20 minutes after capsaicin injection, n=7 mice
Method: For acute and chronic pain models, capsaicin (0.1%, 10 μl, intradermal) was injected into the plantar aspect of the left hindpaw under sedation (1.5% isoflurane <2 min) to prevent stress due to restraining the hindpaw.
Mechanical sensitivity of the hindpaw was assessed by measuring the threshold of withdrawal in response to the application of calibrated von Frey filaments of different bending forces to the plantar aspect of the hindpaw according to the ‘up-down’ method, whereby filaments of different bending forces were pressed against the paw until buckling for a maximum of 3 seconds or a withdrawal reflex.

[6] = rats with capsaicin, ibuprofen 30 mg/kg i.p.
[7] = rats with capsaicin, ibuprofen 30 mg/kg i.p. concomitantly with capsaicin, EEG 30 min after
[8] = rats with CCI, d14, 30 min after i.p. pregabalin
[9] = rats with CFA, d2, before / 30 min after i.p. pregabalin
[10] = 30 min after capsaicin, n=8 rats

## CC(C)Cc1ccc(C(C)C(=O)O)cc1 (stereo not shown) [ibuprofen]
Male Sprague-Dawley rats [1]; [6]
  PWL (FIG. 4B): 114±10
Male Sprague-Dawley rats [2]; [7]
  PFC EEG mean power: 117±18
  iS1 EEG mean power: 143±35

## CC(C)C[C@H](CN)CC(=O)O [pregabalin]
Male Sprague-Dawley rats [1]; rats with CCI, after pregabalin
  PWL (FIG. 4B): 119±5
Male Sprague-Dawley rats [1]; rats with CFA, before / after pregabalin
  PWL (FIG. 4B): 132±17
Male Sprague-Dawley rats [3]; rats with CCI d14, after pregabalin, n=5 rats
  coherence between cS1 and PFC (mean 3-30 Hz coherence): 0.61±0.03
Male Sprague-Dawley rats [2]; rat, in vivo
  adverse EEG signs (diffuse or paroxysmal slow activity associated with drowsiness): did not manifest adverse EEG signs
Male Sprague-Dawley rats [2]; [8]
  PFC EEG mean power: 133±14
  cS1 EEG mean power (FIG. 4A): 87±12
  iS1 EEG mean power: 151±20
Male Sprague-Dawley rats [2]; [9]
  PFC EEG mean power: 138±20
  cS1 EEG mean power (FIG. 4A): 209±35
  iS1 EEG mean power: 133±9

## Cc1cccc(C)c1OCC(C)N (stereo not shown) [mexiletine]
Male Sprague-Dawley rats [1]; rats with CCI, after mexiletine 10 mg/kg i.p.
  PWL (FIG. 4B): 119±17
Male Sprague-Dawley rats [3]; rats with CCI d16, after mexiletine, n=5 rats
  coherence between cS1 and PFC (mean 3-30 Hz coherence): 0.50±0.10
Male Sprague-Dawley rats [2]; rat, in vivo
  PFC EEG mean power: 113±6
  adverse EEG signs (diffuse or paroxysmal slow activity associated with drowsiness): did not manifest adverse EEG signs
  cS1 EEG mean power (FIG. 4A): 134±18
  iS1 EEG mean power: 13926

## COc1cc(CNC(=O)CCCC/C=C/C(C)C)ccc1O [capsaicin]
Male Sprague-Dawley rats [1]; [10]
  paw withdrawal latency (PWL): 6.00 ± 0.24 s
Male Sprague-Dawley rats [1]; 24 hour after capsaicin
  paw withdrawal latency (PWL): 9.15 ± 0.26 s
Male Sprague-Dawley rats [1]; [6]
  PWL (FIG. 4B): 64±3
Male Sprague-Dawley rats [3]; rats with capsaicin or CFA
  cS1-iS1 coherence: did not significantly effect
  iS1-PFC coherence: did not significantly effect
Male Sprague-Dawley rats [3]; rats with capsaicin, n=7 rats
  coherence between cS1 and PFC (mean 3-30 Hz coherence): 0.61±0.05
[4]
  SI power in the theta band at 3.8-6.2 Hz: 8.15×10^−2±0.13×10^−2 mV^2
VPL neurons
  rate of spontaneous burst firing in VPL neurons: 0.64±0.11
Male Sprague-Dawley rats [2]; [10]
  PFC EEG mean power between 3 Hz to 30 Hz: 0.67±0.06 mV^2×10^−5
  cS1 EEG mean power between 3 Hz to 30 Hz: 1.05±0.11 mV^2×10^−5
  iS1 EEG mean power between 3 Hz to 30 Hz: 1.05±0.8 mV^2×10^−5
Male Sprague-Dawley rats [2]; 24 hours after capsaicin
  PFC EEG mean power between 3 Hz to 30 Hz: 0.65±0.07 mV^2×10^−5
  cS1 EEG mean power between 3 Hz to 30 Hz: 0.89±0.12 mV^2×10^−5
  iS1 EEG mean power between 3 Hz to 30 Hz: 0.90±0.18 mV^2×10^−5
Male Sprague-Dawley rats [2]; [7]
  PFC EEG mean power: 123±16
  cS1 EEG mean power (FIG. 4A): 128±17
  iS1 EEG mean power: 124±14
[5]
  paw withdrawal threshold (von Frey): 1.00 ± 0.37 g
